The test system of this assay is P388 leukemia ip, CD2F1 mice, survival T/C. As to the kind of experiment: NCI In Vivo Anticancer Drug Screen. Data for tumor model P388 Leukemia (intraperitoneal) in CD2F1 (CDF1) mice. The conditions noted are these: endpoint: median survival time, higher = longer survival. The gist of the method:
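Mice carrying the transplanted tumor received test compound or vehicle. Survival was recorded in each group, and the value is the treated-group measurement divided by that of the vehicle-treated control group.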

Setting [1] is: dose: 50.0 mg/kg/injection, schedule: Q01DX009 (ip), vehicle: saline with Tween-80.
Where [2] appears, read: dose: 100.0 mg/kg/injection, schedule: Q01DX009 (ip), vehicle: saline with Tween-80.
Setting [3] is: dose: 100.0 mg/kg/injection, schedule: Q04DX003 (ip), vehicle: saline with Tween-80.
Where [4] appears, read: dose: 200.0 mg/kg/injection, schedule: Q04DX003 (ip), vehicle: saline with Tween-80.
Setting [5] is: dose: 400.0 mg/kg/injection, schedule: Q04DX003 (ip), vehicle: saline with Tween-80.
[6] abbreviates: dose: 60.0 mg/kg/injection, schedule: Q01DX005 (ip), vehicle: saline with Tween-80.
Setting [7] is: dose: 120.0 mg/kg/injection, schedule: Q01DX005 (ip), vehicle: saline with Tween-80.
[8] abbreviates: dose: 240.0 mg/kg/injection, schedule: Q01DX005 (ip), vehicle: saline with Tween-80.
Where [9] appears, read: dose: 50.0 mg/kg/injection, schedule: Q01DX005 (ip), vehicle: Klucel (hydroxypropylcellulose) (HPC).
Where [10] appears, read: dose: 100.0 mg/kg/injection, schedule: Q01DX005 (ip), vehicle: Klucel (hydroxypropylcellulose) (HPC).
Where [11] appears, read: dose: 200.0 mg/kg/injection, schedule: Q01DX005 (ip), vehicle: Klucel (hydroxypropylcellulose) (HPC).
Setting [12] is: dose: 200.0 mg/kg/injection, schedule: Q01DX009 (ip), vehicle: saline with Tween-80.

Several values for one entry are separate records, joined by “and”; a condition that tells them apart may be missing. Identical values can stand only once. Toxic doses and inconclusive results are not listed. Peptide text beside a SMILES is read from it. * marks the point of attachment. Cbz = O=C(OCc1ccccc1)*; Bn = c1ccc(C*)cc1; NHNH2 = NN*

Turning to `C1=C(OC(=Nc2ccccc2)N2CCOCC2)N=C(OC(=Nc2ccccc2)N2CCOCC2)/C1=C1\C=C(OC(=Nc2ccccc2)N2CCOCC2)N=C1OC(=Nc1ccccc1)N1CCOCC1`, the T/C (dose: 100.0 mg/kg/injection, schedule: Q01DX001 (ip), vehicle: Klucel (hydroxypropylcellulose) (HPC)) was 104 % of control; the T/C (dose: 200.0 mg/kg/injection, schedule: Q01DX001 (ip), vehicle: Klucel (hydroxypropylcellulose) (HPC)) was 107 % of control; the T/C (dose: 400.0 mg/kg/injection, schedule: Q01DX001 (ip), vehicle: Klucel (hydroxypropylcellulose) (HPC)) is 106 % of control.
`NNC(=O)C(Cc1ccc(O)cc1)NC(=O)C(CSCc1ccccc1)NC(=O)OCc1ccccc1` (configuration not stated) (Cbz-Cys(Bn)-Tyr-NHNH2; configuration not given here): the T/C was 93 % of control (dose: 50.0 mg/kg/injection, schedule: Q01DX009 (ip), vehicle: Klucel (hydroxypropylcellulose) (HPC)); 91 % of control (dose: 100.0 mg/kg/injection, schedule: Q01DX009 (ip), vehicle: Klucel (hydroxypropylcellulose) (HPC)); 89 % of control (dose: 200.0 mg/kg/injection, schedule: Q01DX009 (ip), vehicle: Klucel (hydroxypropylcellulose) (HPC)).
For the compound `COC(=O)C1CC=C(c2ccccc2)CNC1` (configuration not stated), the T/C by setting is: (dose: 100.0 mg/kg/injection, schedule: Q01DX001 (ip), vehicle: saline with Tween-80) 93 % of control; (dose: 200.0 mg/kg/injection, schedule: Q01DX001 (ip), vehicle: saline with Tween-80) 94 % of control.
`COc1ccc(COCc2ccc(OC)c(O)c2)cc1O`: the T/C under setting [1] is 101 % of control and the T/C under setting [2] was 99 % of control.
As to `O=C1c2ccccc2C(=O)N1c1ccc(Cl)cc1[N+](=O)[O-]`, the T/C by setting is: (dose: 100.0 mg/kg/injection, schedule: Q04DX002 (ip), vehicle: saline) 99 % of control; (dose: 200.0 mg/kg/injection, schedule: Q04DX002 (ip), vehicle: saline) 99 % of control; (dose: 400.0 mg/kg/injection, schedule: Q04DX002 (ip), vehicle: saline) 97 % of control.
For the compound `CNC(=O)N=Nc1ccccc1`, the T/C runs as follows: (dose: 50.0 mg/kg/injection, schedule: Q01DX005 (ip), vehicle: saline + Tween-80 + alcohol) 100 % of control; (dose: 100.0 mg/kg/injection, schedule: Q01DX005 (ip), vehicle: saline + Tween-80 + alcohol) 100 % of control; (dose: 200.0 mg/kg/injection, schedule: Q01DX005 (ip), vehicle: saline + Tween-80 + alcohol) 100 % of control.
Consider `CCCCNC(=O)Oc1ccc(OCc2ccccc2)cc1`, for which the T/C is 100 % of control under setting [3], 95 % of control under setting [4] and 90 % of control under setting [5].
For `O=C(Nc1ccc(C2=NCCCN2)cc1)c1ccc(C(=O)Nc2ccc(C3=NCCCN3)cc2)cc1`, the T/C is, setting by setting: (dose: 1.25 mg/kg/injection, schedule: Q04DX003 (ip), vehicle: saline with Tween-80) 100 % of control; (dose: 2.5 mg/kg/injection, schedule: Q04DX003 (ip), vehicle: saline with Tween-80) 113 % of control; (dose: 5.0 mg/kg/injection, schedule: Q01DX009 (ip), vehicle: saline) 300 % of control; (dose: 10.8 mg/kg/injection, schedule: Q04DX003 (ip), vehicle: Klucel (hydroxypropylcellulose) (HPC)) 151 % of control; (dose: 12.0 mg/kg/injection, schedule: Q04DX003 (ip), vehicle: Klucel (hydroxypropylcellulose) (HPC)) 151 % of control; (dose: 18.0 mg/kg/injection, schedule: Q04DX003 (ip), vehicle: Klucel (hydroxypropylcellulose) (HPC)) 165 % of control and 186 % of control and 198 % of control. Further, the T/C was 100 % of control (dose: 20.0 mg/kg/injection, schedule: Q01DX009 (ip), vehicle: saline); 185 % of control (dose: 20.0 mg/kg/injection, schedule: Q04DX003 (ip), vehicle: Klucel (hydroxypropylcellulose) (HPC)); 204 % of control (dose: 20.0 mg/kg/injection, schedule: Q04DX003 (ip), vehicle: saline with Tween-80); 201 % of control (dose: 30.0 mg/kg/injection, schedule: Q04DX003 (ip), vehicle: Klucel (hydroxypropylcellulose) (HPC)); 250 % of control (dose: 33.3 mg/kg/injection, schedule: Q04DX003 (ip), vehicle: Klucel (hydroxypropylcellulose) (HPC)); 91 % of control (dose: 50.0 mg/kg/injection, schedule: Q04DX003 (ip), vehicle: Klucel (hydroxypropylcellulose) (HPC)).
As for `COc1cc(OC)c2c3c1CCC(O)=C3C(=O)OC2`, the T/C (dose: 4.38 mg/kg/injection, schedule: Q01DX005 (ip), vehicle: Klucel (hydroxypropylcellulose) (HPC)) is 94 % of control; the T/C (dose: 8.75 mg/kg/injection, schedule: Q01DX005 (ip), vehicle: Klucel (hydroxypropylcellulose) (HPC)) was 94 % of control; the T/C (dose: 17.5 mg/kg/injection, schedule: Q01DX005 (ip), vehicle: Klucel (hydroxypropylcellulose) (HPC)) was 94 % of control.
As to `O=S(=O)(c1cccc(C(F)(F)F)c1)N(CCCCN(S(=O)(=O)c1cccc(C(F)(F)F)c1)S(=O)(=O)c1cccc(C(F)(F)F)c1)S(=O)(=O)c1cccc(C(F)(F)F)c1`, the T/C runs as follows: under setting [6], 97 % of control; under setting [7], 93 % of control; under setting [8], 90 % of control.
In the case of `C=C(C)[C@H]1CN[C@H](C(=O)O)[C@H]1CC(=O)O`, the T/C is 98 % of control (dose: 0.62 mg/kg/injection, schedule: Q01DX005 (ip), vehicle: saline); 92 % of control (dose: 1.25 mg/kg/injection, schedule: Q01DX005 (ip), vehicle: saline); 99 % of control and 92 % of control (dose: 2.5 mg/kg/injection, schedule: Q01DX005 (ip), vehicle: saline); 93 % of control and 96 % of control (dose: 5.0 mg/kg/injection, schedule: Q01DX005 (ip), vehicle: saline); 99 % of control and 101 % of control (dose: 10.0 mg/kg/injection, schedule: Q01DX005 (ip), vehicle: saline); 100 % of control and 116 % of control (dose: 20.0 mg/kg/injection, schedule: Q01DX005 (ip), vehicle: saline). The T/C (dose: 40.0 mg/kg/injection, schedule: Q01DX005 (ip), vehicle: saline) was 105 % of control.
In the case of `COc1ccc(Cc2cc3c(cc2OCC(=O)Nc2nccs2)OCO3)cc1`, the T/C reads like this: under setting [9], 88 % of control; under setting [10], 97 % of control; under setting [11], 97 % of control.
Consider `Fc1ccc(N2C(c3ccccc3)=N[C@@H](N3CCCCC3)[C@@H]2N2CCCCC2)cc1`, for which the T/C is 102 % of control under setting [9], 99 % of control under setting [10] and 100 % of control under setting [11].
For `O=C(Cc1nc2cc(Cl)c(Cl)cc2nc1CC(=O)c1ccncc1)c1ccncc1`, the T/C by setting is: under setting [6], 93 % of control; under setting [7], 90 % of control; under setting [8], 90 % of control.
In the case of `CN(C)CS/C(=N\C(O)C(Cl)(Cl)Cl)NC(O)C(Cl)(Cl)Cl` (configuration not stated), the T/C reads like this: under setting [9], 97 % of control; under setting [10], 99 % of control; under setting [11], 99 % of control.
For the compound `Cc1ccc(C)c2c1C(=O)c1c(C)ccc(C)c1C2(O)C#Cc1ccccc1`, the T/C under setting [1] is 98 % of control, the T/C under setting [2] is 89 % of control and the T/C under setting [12] was 89 % of control.
Regarding `CC(CC(=O)c1ccccc1)=NCCCN=C(C)CC(=O)c1ccccc1`, the T/C by setting is: under setting [1], 112 % of control; under setting [2], 96 % of control; under setting [12], 96 % of control.
On to `Cc1nc2c([N+](=O)[O-])c(Nc3ccccc3)c([N+](=O)[O-])cc2[nH]1`, for which the T/C (dose: 25.0 mg/kg/injection, schedule: Q04DX003 (ip), vehicle: saline with Tween-80) was 92 % of control; the T/C (dose: 50.0 mg/kg/injection, schedule: Q04DX003 (ip), vehicle: saline with Tween-80) was 101 % of control; the T/C under setting [3] was 104 % of control and 90 % of control.
For `NC(Cc1cccs1)C(=O)O` (configuration not stated), the T/C is, setting by setting: under setting [2], 100 % of control; under setting [3], 109 % of control; under setting [12], 100 % of control; under setting [4], 100 % of control; (dose: 400.0 mg/kg/injection, schedule: Q01DX009 (ip), vehicle: saline with Tween-80) 100 % of control; under setting [5], 100 % of control.
Take `C[N+](C)=c1ccc2nc3c(ccc4ccccc43)oc-2c1`: the T/C (dose: 3.12 mg/kg/injection, schedule: Q01DX005 (ip), vehicle: saline with Tween-80) is 105 % of control; the T/C (dose: 6.25 mg/kg/injection, schedule: Q01DX005 (ip), vehicle: saline with Tween-80) was 105 % of control; the T/C (dose: 12.5 mg/kg/injection, schedule: Q01DX005 (ip), vehicle: saline with Tween-80) is 103 % of control.
In the case of `CC(=O)OCC1OC(N(O)Cc2ccccc2)C(OC(C)=O)C(OC(C)=O)C1OC(C)=O` (configuration not stated), the T/C by setting is: under setting [9], 100 % of control; under setting [10], 95 % of control; under setting [11], 86 % of control.

(Values after PubChem BioAssay AID330 (DTP/NCI, 2004).)
